Data taken from the supplement of paper PMC10307832.

Legend:
Assay in all cases: relative viability (nuclei count vs DMSO), 5 days (fraction); higher = more cells survive
Tipifarnib = compound: Cn1cncc1[C@@](N)(c1ccc(Cl)cc1)c1ccc2c(c1)c(-c1cccc(Cl)c1)cc(=O)n2C [Tipifarnib]
Method in brief: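 Lung cancer cell lines were seeded into 1536-well plates, kept overnight at 37 °C and pinned with five library-drug doses (not always all listed) spaced by √10. After 5 days, nuclei were Hoechst-stained, imaged at 4× and counted with MetaXpress. Viability is treated-well nuclei over vehicle-well nuclei, taken as a median across plates. Plates needed control CV below 25% and at least one doubling.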

Tipifarnib + Bortezomib = compound: Cn1cncc1[C@@](N)(c1ccc(Cl)cc1)c1ccc2c(c1)c(-c1cccc(Cl)c1)cc(=O)n2C [Tipifarnib] + CC(C)C[C@H](NC(=O)[C@H](Cc1ccccc1)NC(=O)c1cnccn1)B(O)O [Bortezomib] (partner 0.002 µM)
Method in brief: (§1)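 Values are medians from duplicate plates. Each reflects relative viability, defined as the nuclei count of treated wells over that of vehicle wells. Lung cancer cell lines in 1536-well plates were pin-tool dosed one day after seeding with one drug alone or with a fixed anchor-drug dose plus five library-drug doses (not always all listed) in √10 steps, then fixed, stained and imaged at 4× after 5 days.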

Tipifarnib + Navitoclax = compound: Cn1cncc1[C@@](N)(c1ccc(Cl)cc1)c1ccc2c(c1)c(-c1cccc(Cl)c1)cc(=O)n2C [Tipifarnib] + CC1(C)CCC(c2ccc(Cl)cc2)=C(CN2CCN(c3ccc(C(=O)NS(=O)(=O)c4ccc(N[C@H](CCN5CCOCC5)CSc5ccccc5)c(S(=O)(=O)C(F)(F)F)c4)cc3)CC2)C1 [Navitoclax] (partner 0.5 µM)
Method in brief: as §1

Tipifarnib + Foretinib = compound: Cn1cncc1[C@@](N)(c1ccc(Cl)cc1)c1ccc2c(c1)c(-c1cccc(Cl)c1)cc(=O)n2C [Tipifarnib] + COc1cc2c(Oc3ccc(NC(=O)C4(C(=O)Nc5ccc(F)cc5)CC4)cc3F)ccnc2cc1OCCCN1CCOCC1 [Foretinib] (partner 0.25 µM)
Method in brief: as §1

Tipifarnib + Lapatinib = compound: Cn1cncc1[C@@](N)(c1ccc(Cl)cc1)c1ccc2c(c1)c(-c1cccc(Cl)c1)cc(=O)n2C [Tipifarnib] + CS(=O)(=O)CCNCc1ccc(-c2ccc3ncnc(Nc4ccc(OCc5cccc(F)c5)c(Cl)c4)c3c2)o1 [Lapatinib] (partner 2 µM)
Method in brief: as §1

Tipifarnib + Pictilisib = compound: Cn1cncc1[C@@](N)(c1ccc(Cl)cc1)c1ccc2c(c1)c(-c1cccc(Cl)c1)cc(=O)n2C [Tipifarnib] + CS(=O)(=O)N1CCN(Cc2cc3nc(-c4cccc5[nH]ncc45)nc(N4CCOCC4)c3s2)CC1 [Pictilisib] (partner 1 µM)
Method in brief: as §1

Tipifarnib + Crizotinib = compound: Cn1cncc1[C@@](N)(c1ccc(Cl)cc1)c1ccc2c(c1)c(-c1cccc(Cl)c1)cc(=O)n2C [Tipifarnib] + C[C@@H](Oc1cc(-c2cnn(C3CCNCC3)c2)cnc1N)c1c(Cl)ccc(F)c1Cl [Crizotinib] (partner 1 µM)
Method in brief: as §1

Tipifarnib + Linsitinib = compound: Cn1cncc1[C@@](N)(c1ccc(Cl)cc1)c1ccc2c(c1)c(-c1cccc(Cl)c1)cc(=O)n2C [Tipifarnib] + C[C@]1(O)C[C@@H](c2nc(-c3ccc4ccc(-c5ccccc5)nc4c3)c3c(N)nccn32)C1 [Linsitinib] (partner 1 µM)
Method in brief: as §1

Tipifarnib + Alpelisib = compound: Cn1cncc1[C@@](N)(c1ccc(Cl)cc1)c1ccc2c(c1)c(-c1cccc(Cl)c1)cc(=O)n2C [Tipifarnib] + Cc1nc(NC(=O)N2CCC[C@H]2C(N)=O)sc1-c1ccnc(C(C)(C)C(F)(F)F)c1 [Alpelisib] (partner 2 µM)
Method in brief: as §1

Tipifarnib + Olaparib = compound: Cn1cncc1[C@@](N)(c1ccc(Cl)cc1)c1ccc2c(c1)c(-c1cccc(Cl)c1)cc(=O)n2C [Tipifarnib] + O=C(c1cc(Cc2n[nH]c(=O)c3ccccc23)ccc1F)N1CCN(C(=O)C2CC2)CC1 [Olaparib] (partner 8 µM)
Method in brief: as §1

## Calu-6
Tipifarnib; 0.01 µM
  relative viability: 0.931
Tipifarnib; 0.03162 µM
  relative viability: 0.767
Tipifarnib; 0.1 µM
  relative viability: 0.688
Tipifarnib; 0.3162 µM
  relative viability: 0.572
Tipifarnib; 1 µM
  relative viability: 0.579
Tipifarnib + Bortezomib; first compound 0.01 µM
  relative viability: 0.928
Tipifarnib + Bortezomib; first compound 0.03162 µM
  relative viability: 0.662
Tipifarnib + Bortezomib; first compound 0.1 µM
  relative viability: 0.634
Tipifarnib + Bortezomib; first compound 0.3162 µM
  relative viability: 0.529
Tipifarnib + Bortezomib; first compound 1 µM
  relative viability: 0.544
Tipifarnib + Navitoclax; first compound 0.01 µM
  relative viability: 0.538
Tipifarnib + Navitoclax; first compound 0.03162 µM
  relative viability: 0.35
Tipifarnib + Navitoclax; first compound 0.1 µM
  relative viability: 0.196
Tipifarnib + Navitoclax; first compound 0.3162 µM
  relative viability: 0.194
Tipifarnib + Navitoclax; first compound 1 µM
  relative viability: 0.2
Tipifarnib + Foretinib; first compound 0.01 µM
  relative viability: 0.886
Tipifarnib + Foretinib; first compound 0.03162 µM
  relative viability: 0.62
Tipifarnib + Foretinib; first compound 0.1 µM
  relative viability: 0.698
Tipifarnib + Foretinib; first compound 0.3162 µM
  relative viability: 0.518
Tipifarnib + Foretinib; first compound 1 µM
  relative viability: 0.424
Tipifarnib + Lapatinib; first compound 0.01 µM
  relative viability: 1.02
Tipifarnib + Lapatinib; first compound 0.03162 µM
  relative viability: 0.801
Tipifarnib + Lapatinib; first compound 0.1 µM
  relative viability: 0.771
Tipifarnib + Lapatinib; first compound 0.3162 µM
  relative viability: 0.599
Tipifarnib + Lapatinib; first compound 1 µM
  relative viability: 0.535
Tipifarnib + Pictilisib; first compound 0.01 µM
  relative viability: 0.891
Tipifarnib + Pictilisib; first compound 0.03162 µM
  relative viability: 0.641
Tipifarnib + Pictilisib; first compound 0.1 µM
  relative viability: 0.555
Tipifarnib + Pictilisib; first compound 0.3162 µM
  relative viability: 0.442
Tipifarnib + Pictilisib; first compound 1 µM
  relative viability: 0.386
Tipifarnib + Crizotinib; first compound 0.01 µM
  relative viability: 0.694
Tipifarnib + Crizotinib; first compound 0.03162 µM
  relative viability: 0.566
Tipifarnib + Crizotinib; first compound 0.1 µM
  relative viability: 0.452
Tipifarnib + Crizotinib; first compound 0.3162 µM
  relative viability: 0.434
Tipifarnib + Crizotinib; first compound 1 µM
  relative viability: 0.344
Tipifarnib + Linsitinib; first compound 0.01 µM
  relative viability: 0.941
Tipifarnib + Linsitinib; first compound 0.03162 µM
  relative viability: 0.679
Tipifarnib + Linsitinib; first compound 0.1 µM
  relative viability: 0.645
Tipifarnib + Linsitinib; first compound 0.3162 µM
  relative viability: 0.515
Tipifarnib + Linsitinib; first compound 1 µM
  relative viability: 0.444
Tipifarnib + Alpelisib; first compound 0.01 µM
  relative viability: 0.831
Tipifarnib + Alpelisib; first compound 0.03162 µM
  relative viability: 0.667
Tipifarnib + Alpelisib; first compound 0.1 µM
  relative viability: 0.609
Tipifarnib + Alpelisib; first compound 0.3162 µM
  relative viability: 0.412
Tipifarnib + Alpelisib; first compound 1 µM
  relative viability: 0.505
Tipifarnib + Olaparib; first compound 0.01 µM
  relative viability: 0.532
Tipifarnib + Olaparib; first compound 0.03162 µM
  relative viability: 0.498
Tipifarnib + Olaparib; first compound 0.1 µM
  relative viability: 0.514
Tipifarnib + Olaparib; first compound 0.3162 µM
  relative viability: 0.502
Tipifarnib + Olaparib; first compound 1 µM
  relative viability: 0.466
